Experiments:
[1] = system: Rattus norvegicus; experiment: Antihyperglycemic activity in streptozotocin-induced diabetic Swiss albino rat assessed as decrease in blood glucose level at 20 mg/kg, po measured up to 3 hrs post dose relative to control; assay type: functional; parameters: scale not given: the % may be the effect or the level left
[2] = target: T1, Peroxisome proliferator-activated receptor gamma (Homo sapiens, UniProt P37231); experiment: Displacement of fluormone-PPARgamma green from GST-tagged PPARgamma-LBD (unknown origin) by fluorescence polarization assay
T1 sequence (P37231 whole entry): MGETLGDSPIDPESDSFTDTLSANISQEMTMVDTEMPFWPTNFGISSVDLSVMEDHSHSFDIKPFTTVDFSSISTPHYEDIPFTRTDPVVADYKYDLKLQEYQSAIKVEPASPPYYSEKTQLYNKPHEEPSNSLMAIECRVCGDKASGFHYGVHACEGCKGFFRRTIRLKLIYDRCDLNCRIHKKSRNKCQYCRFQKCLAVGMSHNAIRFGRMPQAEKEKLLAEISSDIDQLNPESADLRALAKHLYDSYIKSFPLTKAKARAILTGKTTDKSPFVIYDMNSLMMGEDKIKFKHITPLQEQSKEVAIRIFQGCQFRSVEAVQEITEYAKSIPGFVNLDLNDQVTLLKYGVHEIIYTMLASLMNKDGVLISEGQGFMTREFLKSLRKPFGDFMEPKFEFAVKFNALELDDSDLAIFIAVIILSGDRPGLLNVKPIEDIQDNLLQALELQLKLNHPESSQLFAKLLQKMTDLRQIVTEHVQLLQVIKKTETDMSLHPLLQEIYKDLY

[3] = Agonist activity at SUR in Wistar rat pancreatic islets assessed as increase in insulin secretion at 5 to 20 uM incubated for 1 hr followed by glucose addition for 30 mins by quantitative sandwich enzyme immunoassay

IC50 ([2]; read-out: IC50) [µM] | Compound | Activity [1] [%] | EC50 [3] [µM] | IC50 [2]
– | COc1ccc(-n2c(SCC(=O)Nc3ccc(S(=O)(=O)NC(=O)Nc4ccccc4)cc3)nc3ccccc3c2=O)cc1 | 24.58 | – | –
2.4 | CC(=O)Nc1ccc(S(=O)(=O)NCCc2ccc(S(=O)(=O)NC(=O)NC3CCC(C)CC3)cc2)cc1C (configuration not stated) | – | – | –
– | CCc1nc2ccccc2c(=O)n1CC(=O)Nc1ccc(S(=O)(=O)NC(=O)Nc2ccccc2)cc1 | 21.55 | – | –
– | Cc1nc2ccccc2c(=O)n1CC(=O)Nc1ccc(S(=O)(=O)NC(=O)Nc2ccccc2)cc1 | 19.66 | – | –
1000 | COc1ccc(NC(=S)NS(=O)(=O)c2ccc(CCNS(=O)(=O)c3ccccc3)cc2)cc1 | – | – | –
1.6 | CC1CCC(NC(=O)NS(=O)(=O)c2ccc(CCNS(=O)(=O)c3ccc(Br)cc3)cc2)CC1 (configuration not stated) | – | – | –
50 | Cc1ccc(NC(=S)NS(=O)(=O)c2ccc(CCNS(=O)(=O)c3ccccc3)cc2)cc1 | – | – | –
– | Cc1ccc(NC(=S)NS(=O)(=O)c2ccc(CCNS(=O)(=O)c3ccc(C)cc3)cc2)cc1 | – | – | Not Active
33.3 | O=S(=O)(NCCc1ccc(S(=O)(=O)NC(=S)Nc2ccc(Cl)cc2)cc1)c1ccc(Cl)cc1 | – | – | –
3.4 | CC1CCC(NC(=O)NS(=O)(=O)c2ccc(CCNS(=O)(=O)c3ccccc3)cc2)CC1 (configuration not stated) | – | – | –
– | Cc1ccc(S(=O)(=O)NCCc2ccc(S(=O)(=O)NC(=S)Nc3ccc(Cl)cc3)cc2)cc1 | – | – | Not Active
3.1 | O=C(NC1CCCCC1)NS(=O)(=O)c1ccc(CCNS(=O)(=O)c2ccc(Cl)cc2)cc1 | – | – | –
– | Cc1nc2ccc(Br)cc2c(=O)n1CC(=O)Nc1ccc(S(=O)(=O)NC(=O)Nc2ccccc2)cc1 | 21.33 | – | –
33.3 | COc1ccc(NC(=S)NS(=O)(=O)c2ccc(CCNS(=O)(=O)c3ccc(Cl)cc3)cc2)cc1 | – | – | –
– | CCCCNC(=O)NS(=O)(=O)c1ccc(NC(=O)Cn2c(C)nc3ccc(Br)cc3c2=O)cc1 | 28.25 | – | –
4 | Cc1nc2ccccc2n(CC(=O)Nc2ccc(S(=O)(=O)NC(=O)Nc3ccccc3)cc2)c1=O | – | – | –
4 | Cc1nc2ccccc2n(CC(=O)Nc2ccc(S(=O)(=O)NC(=S)NC3CCCCC3)cc2)c1=O | – | – | –
– | CCC1=C(C)CN(C(=O)NCCc2ccc(S(=O)(=O)NC(=O)N[C@H]3CC[C@H](C)CC3)cc2)C1=O [GLIMEPIRIDE] | – | 0.79 | –
33.3 | O=S(=O)(NCCc1ccc(S(=O)(=O)NC(=S)Nc2ccc(Cl)cc2)cc1)c1ccccc1 | – | – | –
4 | CCCCNC(=O)NS(=O)(=O)c1ccc(NC(=O)Cn2c(=O)c(C)nc3ccccc32)cc1 | – | – | –
12.5 | O=C(NC1CCCCC1)NS(=O)(=O)c1ccc(CCNS(=O)(=O)c2ccccc2)cc1 | – | – | –
4 | Cc1nc2ccccc2n(CC(=O)Nc2ccc(S(=O)(=O)NC(=O)NC3CCCCC3)cc2)c1=O | – | – | –
4 | Cc1nc2ccccc2n(CC(=O)Nc2ccc(S(=O)(=O)NC(=S)Nc3ccccc3)cc2)c1=O | – | – | –
4 | CCCCNC(=S)NS(=O)(=O)c1ccc(NC(=O)Cn2c(=O)c(C)nc3ccccc32)cc1 | – | – | –
2.39 | O=C(NC1CCCCC1)NS(=O)(=O)c1ccc(CCNS(=O)(=O)c2ccc(Br)cc2)cc1 | – | – | –
– | COc1ccc(NC(=S)NS(=O)(=O)c2ccc(CCNS(=O)(=O)c3ccc(C)cc3)cc2)cc1 | – | – | Not Active
7.14 | CC(=O)Nc1ccc(S(=O)(=O)NCCc2ccc(S(=O)(=O)NC(=O)NC3CCC(C)CC3)cc2)cc1 (configuration not stated) | – | – | –

Compound | IC50 ([2]; read-out: IC50) [µM] | Activity [1] [%] | EC50 [3] [µM] | IC50 [2]
CCCCNC(=O)NS(=O)(=O)c1ccc(NC(=O)Cn2c(C)nc3ccccc3c2=O)cc1 | 0.98 | 29.22 | 2.91 | –
Cc1nc2ccc(Br)cc2c(=O)n1CC(=O)Nc1ccc(S(=O)(=O)NC(=O)NC2CCCCC2)cc1 | 0.353 | 42.5 | 1.68 | –
Cc1ccc(-n2c(SCC(=O)Nc3ccc(S(=O)(=O)NC(=O)Nc4ccccc4)cc3)nc3ccccc3c2=O)cc1 | 0.371 | 33.42 | 3.09 | –
CCCCNC(=O)NS(=O)(=O)c1ccc(NC(=O)Cn2c(CC)nc3ccccc3c2=O)cc1 | 0.408 | 38.44 | 2.51 | –
Cc1nc2ccccc2c(=O)n1CC(=O)Nc1ccc(S(=O)(=O)NC(=O)NC2CCCCC2)cc1 | 0.464 | 38.64 | 2.69 | –
CCCCNC(=O)NS(=O)(=O)c1ccc(NC(=O)CSc2nc3ccccc3c(=O)n2-c2ccc(OC)cc2)cc1 | 0.369 | 41.23 | 1.01 | –
Cc1ccc(-n2c(SCC(=O)Nc3ccc(S(=O)(=O)NC(=O)NC4CCCCC4)cc3)nc3ccccc3c2=O)cc1 | 0.402 | 40.43 | 1.31 | –
CCCCNC(=O)NS(=O)(=O)c1ccc(NC(=O)CSc2nc3ccccc3c(=O)n2-c2ccc(C)cc2)cc1 | 0.434 | 37.76 | 1.53 | –
COc1ccc(-n2c(SCC(=O)Nc3ccc(S(=O)(=O)NC(=O)NC4CCCCC4)cc3)nc3ccccc3c2=O)cc1 | 0.35 | 46.42 | 0.97 | –
CCc1nc2ccccc2c(=O)n1CC(=O)Nc1ccc(S(=O)(=O)NC(=O)NC2CCCCC2)cc1 | 0.59 | 34.25 | 1.15 | –
